Experimental data: patent US20110142837A1, “Method Of Treating Acute Respiratory Distress Syndrome” (TRUSTEES OF THE UNIVERSITY OF PENNSYLVANIA, priority 2007, published 2011)
One block for each compound: values may come before it.

Experiments:
[1] = system: TF expression in neutrophils; experiment: TF expression in BALF-stimulated healthy neutrophils (APAAP immunostaining, FACS, western blot); type: cell-based, human; conditions: FIGS. 4B, C and D; healthy neutrophils + 40 μl ARDS BALF
Experimental: (§1) Stimulation and inhibition studies: Neutrophils from healthy individuals were incubated for 120 minutes at 37° C. in PBS containing various stimulatory or inhibitory substances, in a total volume of 250 μl. Neutrophils were incubated with: 1) serum (50 μl) from healthy individuals; 2) serum (50 μl) from patients suffering from ARDS; 3) BAL fluid (40 μl) from ARDS patients; 4) BAL fluid from ARDS patients, together with normal neutrophils that had been pretreated for 30 minutes with the C5aR antagonist AcF-[OpdChaWR] (5 μM final concentration); 5) BAL fluid from patients with ARDS, together with normal neutrophils that had been preincubated for 30 minutes with the C3aR antagonist […], 10 μM final concentration); 6) BAL fluid from ARDS patients pretreated for 30 minutes with Humira® (Abbot Laboratories, Abbott Park, Ill.; anti-TNF monoclonal antibody, 0.4 μg/μl final concentration), together with normal neutrophils; or 7) BAL fluid from ARDS patients, together with normal neutrophils pretreated for 30 minutes with anti-IL-6 Mab (10 μg/ml final concentration).
Alkaline-Phosphatase anti-Alkaline-Phosphatase (APAAP) Immunostaining: Smears of cells (BALF pellet and peripheral blood-isolated neutrophils, before and after stimulation and/or inhibition studies) were stored at −20° C. prior to use. […]

[2] = system: neutrophils from healthy individuals incubated with BAL fluid from ARDS patients; experiment: mPT of supernatants from healthy neutrophils stimulated with ARDS BAL fluid, inhibition studies; type: cell-based, human
Experimental: Isolation of peripheral blood neutrophils: Circulating leukocytes from all ARDS patients and from 4 healthy donors were immediately isolated from EDTA-treated peripheral blood. Peripheral blood neutrophils were separated by Histopaque-double gradient density centrifugation. The absolute number of neutrophils was adjusted to 2-3×10^6 cells/ml in PBS. Approximately one-quarter (˜6-8×10^5 cells in 250 μl PBS) was used for each stimulation or inhibition reaction. Cell purity (>98%), viability by trypan blue exclusion (>97%), and platelet contamination (<2 platelets/100 neutrophils) were assessed in all experiments.
Modified prothrombin time (mPT) assay: The supernatants from neutrophils that had been incubated with BALF supernatants or/and various agents were isolated by centrifugation at 1000×g for 10 minutes; the supernatants from these neutrophil preparations were checked a second time to confirm the absence of contaminating cells or platelets. The coagulation activities (TF/FVIIa binding activity) of the cell supernatants were determined using a modified prothrombin time (mPT) assay as previously described (18). After performing the “classic” prothrombin time (PT) test (100 microliter (μl) platelet poor plasma (PPP) plus 200 μl thromboplastin ISI 1.9 (Instrumentation Laboratory, Milan, Italy), the modified PT analysis was carried out. Namely, 120 μl of cell or BALF supernatant and 80 μl thromboplastin were added to 100 μl of PPP to measure the changes in PT. As a control for modified PT assays, 120 μl of PBS was used instead of cell supernatant, and the in vitro clotting time usually ranged from 31 seconds to 34 seconds.
as §1
In the complement cascade, cleavage of C3 produces C3a and C3b. C3b contributes to the formation of enzymatic assemblies that in turn catalyze the formation of C5a from C5. The following experiment was designed to test whether inhibition of C3 cleavage, which reduces the amount of C5a formed, is effective in reducing TF expression. Modified PT assays were carried out essentially as described above using neutrophils obtained from healthy individuals and incubating them with BAL fluid from patients with ARDS. The BAL fluid from the seven patients was tested individually.

[3] = target: TNF-alpha in BALF from ARDS patients (human) (UniProt P01375); experiment: cell-based or functional assay
UniProt P01375, sequence (P01375 77-233 limits assumed): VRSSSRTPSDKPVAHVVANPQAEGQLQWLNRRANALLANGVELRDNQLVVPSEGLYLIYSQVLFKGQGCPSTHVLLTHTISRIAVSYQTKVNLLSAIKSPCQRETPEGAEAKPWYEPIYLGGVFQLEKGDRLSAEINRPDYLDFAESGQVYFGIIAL

[4] = target: C5a receptor (C5aR) on neutrophils from healthy individuals (human) (UniProt P21730); experiment: cell-based or functional assay
UniProt P21730, sequence (P21730 whole entry): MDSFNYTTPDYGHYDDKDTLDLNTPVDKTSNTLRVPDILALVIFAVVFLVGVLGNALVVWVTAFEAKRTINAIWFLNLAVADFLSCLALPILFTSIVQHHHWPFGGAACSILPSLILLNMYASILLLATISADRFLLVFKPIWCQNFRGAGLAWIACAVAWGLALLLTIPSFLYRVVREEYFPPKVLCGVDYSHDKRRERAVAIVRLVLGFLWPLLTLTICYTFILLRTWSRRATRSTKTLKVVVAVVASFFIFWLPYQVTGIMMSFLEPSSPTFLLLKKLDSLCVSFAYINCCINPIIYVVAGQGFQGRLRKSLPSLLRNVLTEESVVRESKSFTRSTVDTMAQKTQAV

Compound: Acetyl-Phe-[Orn-Pro-D-cyclohexylalanine-Trp-Arg] [PMX-53]
TF expression in BALF-stimulated neutrophils after blockade (immunohistochemical, flow cytometry, western blot) [1]: loss of TF expression | mPT of supernatants from BALF-stimulated healthy neutrophils after blockade of signaling ([2]; 40 μl ARDS BALF, 30 minutes pretreatment, C5aR antagonist 5 μM, Humira 0.4 μg/μl, BALF without inhibitor 24.13±1.31 sec, ARDS serum control 29.69±1.64 sec, p<0.001, FIG. 4A): 31.91 ± 0.64 s

Compound: CC[C@H](C)[C@H](N)C(=O)N[C@H]1CSSC[C@@H](C(=O)N[C@H](C(N)=O)[C@@H](C)O)NC(=O)[C@H](CCCN=C(N)N)NC(=O)[C@H](Cc2cnc[nH]2)NC(=O)[C@H](Cc2cnc[nH]2)NC(=O)CNC(=O)[C@H](Cc2c[nH]c3ccccc23)NC(=O)[C@H](CC(=O)O)NC(=O)[C@H](CCC(N)=O)NC(=O)[C@H](C(C)C)NC(=O)[C@H](C(C)C)NC1=O [compstatin, Ile-Cys-Val-Val-Gln-Asp-Trp-Gly-His-His-Arg-Cys-Thr]
mPT, healthy neutrophils + BALF incubated with compstatin, group b ([2]; 3 ARDS cases (group b), FIG. 6, column 5, P=ns compared to BALF alone 24.13±1.31): 24.57±0.55 | mPT, healthy neutrophils + BALF preincubated with compstatin, group a ([2]; 4 ARDS cases (group a), FIG. 6, column 4, p<0.001 compared to BALF alone 24.13±1.31, PBS 32.11±0.58): 27.98±0.71 | effect on procoagulant activity in mPT, Comp b ([2]; group of 3 ARDS patients, FIG. 6): did not significantly reduce the procoagulant activity | effect on procoagulant activity in mPT, Comp a ([2]; group of 4 ARDS patients, FIG. 6): reduced the procoagulant activity

Compound: NC(N)=NCCC[C@H](NC(=O)COCC(c1ccccc1)c1ccccc1)C(=O)O [SB-290152]
influence on mPT values of supernatants from BALF-stimulated neutrophils ([2]; SB-290152 10 μM, anti-IL-6 Mab 10 μg/ml, 30 minutes pretreatment): did not influence the mPT values

modified prothrombin time (mPT) of supernatants from healthy neutrophils stimulated with BALF pretreated with anti-TNF antibody [3]: 30.4 s
Compound: Humira (Abbott Laboratories; anti-TNF monoclonal antibody)

modified prothrombin time (mPT) of supernatants from BALF-stimulated healthy neutrophils pretreated with C5aR antagonist [4]: 31.9 s
Compound: AcF-[OPdChaWR] (acetyl-Phe-[Orn-Pro-D-cyclohexylalanine-Trp-Arg]; PMX-53) (peptide)
